This note sets out measurements from patent US7601687B2, “Mechanism for identifying drugs for the treatment of type II diabetes” (BioCrine AB, priority 2006, dated 2009).

The subject of one assay is βGK mRNA. Description: βGK mRNA steady-state levels (comparative RT-PCR) in cultured pancreatic islets / insulin-producing cells. The class given is cell-based, rat. The method, then:
Insulin-producing HIT-T15 cells were obtained from ATCC. HIT cells were reported to show glucose responsiveness at subphysiological concentrations between 0.1 and 2 mM (Sharma et al., 1995). HIT cells were grown in RPMI 1640 medium supplemented with 100 units/ml penicillin, 100 μg/ml streptomycin, 2 mM glutamine and 10% fetal calf serum at 5% CO2 and 37° C. Pancreatic islets were isolated from normally fed male Wistar rats and from mice by collagenase digestion. Isolated islets were incubated overnight at 5% CO2 and 37° C. in RPMI 1640 medium, supplemented as described above. Transfection of HIT-T15 and islet cells was performed overnight by the lipofectamine technique in RPMI 1640 medium, without serum and antibiotics. For on-line monitoring, cells were grown and transfected on 24-mm glass coverslips. Following transfection, HIT cells were cultured for 12-18 h in RPMI 1640 medium containing 0.1 mM glucose, 10% fetal calf serum and supplemented as above. Before stimulation, islets and islet cells were incubated for 2 h in RPMI 1640 medium, supplemented as above but containing 3 mM glucose. All expression constructs were prepared using the Qiagen Plasmid Maxi Kit (Qiagen), except those used to produce the adenoviruses which where purified by ultracentrifugation via a CsCI-gradient (as described in Sambrook et al, 1989).
All experiments were performed in RPMI 1640 medium, supplemented as above. Protein kinase inhibitors, antibodies or nifedipine were added to the culture medium 30 min prior to stimulation and were kept in the medium throughout stimulation. After stimulation islets, islet cells and HIT cells were cultured further at substimulatory glucose concentrations (0.1 mM for HIT cells and 3 mM for islets and islet cells). For RNA-analysis, islets and cells were harvested 60 min after start of stimulation, if not indicated otherwise. For analysis of protein kinase activities or tyrosine phosphorylation, cells were harvested immediately following stimulation.
RNA Analysis Levels of βGK mRNA were analyzed by RNase-protection assays and comparative RT-PCR. […] Quantification of the protected complexes was performed by phosphorimaging. […] Levels of μGK mRNA were analyzed by RT-PCR using primers 5′-[…]-3′(SEQ ID NO: 1) and 5′-[…]-3′(SEQ ID NO: 2) for characterizing μGK mRNA in HIT cells and primers 5′-[…]-3′(SEQ ID NO: 3) and 5′-[…]-3′(SEQ ID NO: 4) for μGK mRNA in rat and mouse pancreatic islets and islet cells. Levels of μ-actin mRNA were analyzed by RT-PCR using primers 5′-[…]-3′(SEQ ID NO: 5) and 5′-[…]-3′(SEQ ID NO: 6). […] PCR products were separated on a 6% polyacrylamide sequencing gel and analyzed by phosphorimaging. […]

Another assay relates to rat βGK promoter. Description: βGK promoter-driven GFP expression in co-transfected human islet cells. Particulars: 5 mU/ml insulin for 5 min, sub-stimulatory glucose. The class given is cell-based. The method, then:
Data are presented as the ratio of fluorescence obtained at minutes 240 and 60 and represent mean values ±S.E. (n=11).
Detection of fluorescence by digital imaging fluorescence microscopy was performed as described previously (Leibiger et al., 1998a; Leibiger et al., 1998b). Briefly, transfected cells were grown on 24-mm glass coverslips. After stimulation the coverslips were placed into a perifusion chamber which was mounted on an inverted microscope (Zeiss Axiovert 135TV). Temperature was kept at 37° C. and the cells were perfused with RPMI 1640 medium. The objective lens used was a Zeiss-Fluar ×40/1.30 oil Imm Korr. Fluorescence imaging was performed with a cooled charged-coupled device camera (CH250 with KAF 1400, Photometrics, Tucson, Ariz.) connected to an imaging system (Inovision) with fluorescence excitation from a SPEX fluorolog-2 CM1T11I spectrofluorometer (Spex Industries). […]
On-line monitoring was initiated 60 min following the start of stimulation and the 60-min value of GFP- or DsRed-fluorescence was set to 1.0. Cells to be monitored were chosen randomly at minute 60 from six fields of vision and fluorescence was monitored up to minute 240. By overlaying the fluorescence and phase-contrast images, the position of cells on the coverslip could be checked. Fluorescence intensity was calculated by using the ISee-software for UNIX (Inovision Corporation).

Turning to “autocamtide-2 related inhibitory peptide”, in the assay with βGK mRNA (5 mU/ml insulin, 400 nM AC, FIG. 5B), the “effect of inhibitor on insulin-stimulated βGK mRNA steady-state levels” value is “altered neither”.

With insulin, the “exogenous insulin sufficient to evoke βGK mRNA levels” value with βGK mRNA (pancreatic islets, fully supplemented culture medium, substimulatory glucose) turned out to be 50 μU insulin per ml. The “βGK promoter-driven GFP expression upon insulin stimulation” value with rat βGK promoter is recorded as “up-regulation”.
